Laboratory results from patent publication US7812170B2, “Insecticides” (Syngenta Crop Protection, Inc., priority 2004, dated 2010).

Experiments:
Plutella xylostella = test: Activity against Plutella xylostella (sprayed cabbage plants); format: in vivo; conditions: 72 h, 400 ppm active ingredient, sprayed young cabbage plants, 3rd instar caterpillars, 3 days, read-out: percentage reduction in the population and in the feeding damage (% activity)
Protocol: (§1) Activity Against Plutella xylostella Young cabbage plants are sprayed with an aqueous emulsion spray mixture comprising 400 ppm of active ingredient and, after the spray coating has dried on, populated with 10 caterpillars (3rd instar) of Plutella xylostella and introduced into a plastic container. 3 days later, the percentage reduction in the population and in the feeding damage (% activity) are determined by comparing the number of dead caterpillars and the feeding damage between the treated and untreated plants.

Diabrotica balteata = test: Activity against Diabrotica balteata (sprayed maize seedlings); format: in vivo; conditions: 144 h, 400 ppm active ingredient, 2nd instar larvae, 6 days, read-out: percentage reduction in the population (% activity)
Protocol: Activity Against Diabrotica balteata Maize seedlings are sprayed with an aqueous emulsion spray mixture comprising 400 ppm of active ingredient and, after the spray coating has dried on, populated with 10 larvae (2nd instar) of Diabrotica balteata and introduced into a plastic container. 6 days later, the percentage reduction in the population (% activity) is determined by comparing the number of dead larvae between the treated and untreated plants.

Spodoptera littoralis = test: Activity against Spodoptera littoralis (sprayed soya plants); format: in vivo; conditions: 72 h, 400 ppm active ingredient, sprayed young soya plants, 1st instar caterpillars, 3 days, read-out: percentage reduction in the population and in the feeding damage (% activity)
Protocol: as §1, with “Spodoptera littoralis” for “Plutella xylostella”, “soya” for “cabbage”, “(1st” for “(3rd”

Heliothis virescens = test: Activity against Heliothis virescens (foliar application); format: in vivo; conditions: 144 h, 400 ppm active ingredient, sprayed young soya plants, 1st instar caterpillars, 6 days, read-out: percentage reduction in the population and in the feeding damage (% activity)
Protocol: as §1, with “Against Heliothis virescens (Foliar Application)” for “Against Plutella xylostella”, “Young soya” for “Young cabbage”, “caterpillars (1st” for “caterpillars (3rd”, “of Heliothis virescens” for “of Plutella xylostella”, “container. 6” for “container. 3”

SMILES	melting point	inhibition at 400 ppm (Plutella xylostella)	inhibition at 400 ppm (Diabrotica balteata)	inhibition at 400 ppm (Spodoptera littoralis)	inhibition at 400 ppm (Heliothis virescens)
Cc1c(NC(=O)c2cc(C(F)(F)F)nn2-c2ncccc2Cl)c(C(=O)NC(C)C)cc2c1OC(C)(C)O2	256 to 258 °C	–	–	–	–
CC(C)NC(=O)c1cc2ccccc2c(Cl)c1NC(=O)c1cc(C(F)(F)F)nn1-c1ncccc1Cl [Compound T1.3]	–	> 80%	> 80%	> 80%	> 80%
CNC(=O)c1cc2cc(Br)ccc2c(Cl)c1NC(=O)c1cc(C(F)(F)F)nn1-c1ncccc1Cl [Compound T2.1]	–	> 80%	–	> 80%	> 80%
CCNC(=O)c1cc2cc(Br)ccc2c(Cl)c1NC(=O)c1cc(C(F)(F)F)nn1-c1ncccc1Cl [Compound T2.2]	–	> 80%	–	> 80%	> 80%
CNC(=O)c1cc2cc(C#N)ccc2c(Cl)c1NC(=O)c1cc(C(F)(F)F)nn1-c1ncccc1Cl [Compound T5.1]	–	> 80%	–	> 80%	> 80%
CC(C)NC(=O)c1cc2cc(C#N)ccc2c(Cl)c1NC(=O)c1cc(C(F)(F)F)nn1-c1ncccc1Cl [Compound T5.3]	–	> 80%	–	> 80%	> 80%
CC(C)NC(=O)c1cc2ccccc2c(Br)c1NC(=O)c1cc(C(F)(F)F)nn1-c1ncccc1Cl [Compound T7.3]	–	> 80%	> 80%	> 80%	> 80%
CNC(=O)c1cc2ccccc2c(C)c1NC(=O)c1cc(C(F)(F)F)nn1-c1ncccc1Cl [Compound T8.1]	–	> 80%	–	> 80%	> 80%
CNC(=O)c1cc2cc(Br)ccc2c(Br)c1NC(=O)c1cc(C(F)(F)F)nn1-c1ncccc1Cl [Compound T9.1]	–	> 80%	–	> 80%	> 80%
CCNC(=O)c1cc2cc(Br)ccc2c(Br)c1NC(=O)c1cc(C(F)(F)F)nn1-c1ncccc1Cl [Compound T9.2]	–	> 80%	–	> 80%	> 80%
CC(C)NC(=O)c1cc2cc(Br)ccc2c(Br)c1NC(=O)c1cc(C(F)(F)F)nn1-c1ncccc1Cl [Compound T9.3]	–	> 80%	–	> 80%	> 80%
CNC(=O)c1cc2cc(Cl)ccc2c(Cl)c1NC(=O)c1cc(C(F)(F)F)nn1-c1ncccc1Cl [Compound T20.1]	–	> 80%	–	> 80%	> 80%
CC(C)NC(=O)c1cc2cc(Cl)ccc2c(Cl)c1NC(=O)c1cc(C(F)(F)F)nn1-c1ncccc1Cl [Compound T20.3]	–	> 80%	–	> 80%	> 80%
CC(C)NC(=O)c1cc(Cl)c2ccccc2c1NC(=O)c1cc(C(F)(F)F)nn1-c1ncccc1Cl [Compound T22.3]	–	> 80%	–	–	–
CNC(=O)c1nc2ccccc2c(C)c1NC(=O)c1cc(C(F)(F)F)nn1-c1ncccc1Cl [Compound T75.1]	–	> 80%	–	> 80%	> 80%
Cc1c(NC(=O)c2cc(C(F)(F)F)nn2-c2ncccc2Cl)c(C(=O)NC(C)C)nc2ccccc12 [Compound T75.3]	–	> 80%	–	> 80%	> 80%
CNC(=O)c1cc2c([N+](=O)[O-])cccc2c(Cl)c1NC(=O)c1cc(C(F)(F)F)nn1-c1ncccc1Cl [Compound T76.1]	–	> 80%	–	> 80%	> 80%
CC(C)NC(=O)c1cc2c([N+](=O)[O-])cccc2c(Cl)c1NC(=O)c1cc(C(F)(F)F)nn1-c1ncccc1Cl [Compound T76.3]	–	> 80%	–	> 80%	> 80%
CNC(=O)c1cc2ccccc2c([N+](=O)[O-])c1NC(=O)c1cc(C(F)(F)F)nn1-c1ncccc1Cl [Compound T78.1]	–	> 80%	–	–	–
CNC(=O)c1sc2cccc(Cl)c2c1NC(=O)c1cc(C(F)(F)F)nn1-c1ncccc1Cl [Compound T79.1]	–	> 80%	–	–	> 80%
CNC(=O)c1c(NC(=O)c2cc(C(F)(F)F)nn2-c2ncccc2Cl)c(C)nc2ccccc12 [Compound T81.1]	–	> 80%	–	–	> 80%

Continued, in another order:

melting point	SMILES	inhibition at 400 ppm (Plutella xylostella)	inhibition at 400 ppm (Diabrotica balteata)	inhibition at 400 ppm (Spodoptera littoralis)	inhibition at 400 ppm (Heliothis virescens)
274 to 276 °C	CNC(=O)c1cc2c(c(Br)c1NC(=O)c1cc(C(F)(F)F)nn1-c1ncccc1Cl)OC(C)(C)O2	–	–	–	–
242 to 244 °C	CNC(=O)c1cc2c(c(C)c1NC(=O)c1cc(C(F)(F)F)nn1-c1ncccc1Cl)OC(C)(C)O2	–	–	–	–
265 to 267 °C	CNC(=O)c1cc2c(c(Cl)c1NC(=O)c1cc(C(F)(F)F)nn1-c1ncccc1Cl)OC(F)(F)O2	–	–	–	–
261 to 263 °C	CNC(=O)c1c(NC(=O)c2cc(C(F)(F)F)nn2-c2ncccc2Cl)sc2c1CCCC2 [Compound T46.1]	–	–	–	–
246 to 248 °C	CC(C)NC(=O)c1c(NC(=O)c2cc(C(F)(F)F)nn2-c2ncccc2Cl)sc2c1CCCC2 [Compound T46.3]	–	–	–	–
145 to 147 °C	CNC(=O)c1cc2c(nc1NC(=O)c1cc(C(F)(F)F)nn1-c1ncccc1Cl)CCCC2 [Compound T50.1]	–	–	–	–
143 to 145 °C	CC(C)NC(=O)c1cc2c(nc1NC(=O)c1cc(C(F)(F)F)nn1-c1ncccc1Cl)CCCC2 [Compound T50.3]	–	–	–	–
165 to 168 °C	CNC(=O)c1c(NC(=O)c2cc(C(F)(F)F)nn2-c2ncccc2Cl)nc2c(c1-c1ccccc1)CCCC2 [Compound T51.1]	–	–	–	–
146 to 148 °C	CC(C)NC(=O)c1c(NC(=O)c2cc(C(F)(F)F)nn2-c2ncccc2Cl)nc2c(c1-c1ccccc1)CCCC2 [Compound T51.3]	–	–	–	–
211 to 213 °C	CNC(=O)c1c(NC(=O)c2cc(C(F)(F)F)nn2-c2ncccc2Cl)nc2c(c1-c1ccccc1)CCCCC2 [Compound T52.1]	–	–	–	–
269 to 270 °C	CC(C)NC(=O)c1c(NC(=O)c2cc(C(F)(F)F)nn2-c2ncccc2Cl)nc2c(c1-c1ccccc1)CCCCC2 [Compound T52.3]	–	–	–	–
183 to 185 °C	CNC(=O)c1c(NC(=O)c2cc(C(F)(F)F)nn2-c2ncccc2Cl)nc2c(c1-c1cccc(Cl)c1)CCCC2 [Compound T53.1]	–	–	–	–
259 to 260 °C	CC(C)NC(=O)c1c(NC(=O)c2cc(C(F)(F)F)nn2-c2ncccc2Cl)nc2c(c1-c1cccc(Cl)c1)CCCC2 [Compound T53.3]	–	–	–	–
226 to 228 °C	CNC(=O)[C@H]1Cc2ccccc2C[C@H]1NC(=O)c1cc(C(F)(F)F)nn1-c1ncccc1Cl [Compound T72.1]	–	–	–	–
229 to 232 °C	CC(C)NC(=O)[C@H]1Cc2ccccc2C[C@H]1NC(=O)c1cc(C(F)(F)F)nn1-c1ncccc1Cl [Compound T72.3]	–	–	–	–
230 to 233 °C	O=C(N[C@@H]1Cc2ccccc2C[C@@H]1C(=O)NC1CC1)c1cc(C(F)(F)F)nn1-c1ncccc1Cl [Compound T72.207]	–	–	–	–
184 to 186 °C	CSCC(C)(C)NC(=O)[C@H]1Cc2ccccc2C[C@H]1NC(=O)c1cc(C(F)(F)F)nn1-c1ncccc1Cl [Compound T72.273]	–	–	–	–
205 to 207 °C	CNC(=O)[C@H]1Cc2ccccc2C(C)[C@H]1NC(=O)c1cc(C(F)(F)F)nn1-c1ncccc1Cl (stereo partly drawn) [Compound T73.1]	–	–	–	–
223 to 225 °C	CC(C)NC(=O)[C@H]1Cc2ccccc2C(C)[C@H]1NC(=O)c1cc(C(F)(F)F)nn1-c1ncccc1Cl (stereo partly drawn) [Compound T73.3]	–	–	–	–
192 to 194 °C	CC1c2ccccc2C[C@H](C(=O)NC2CC2)[C@@H]1NC(=O)c1cc(C(F)(F)F)nn1-c1ncccc1Cl (stereo partly drawn) [Compound T73.207]	–	–	–	–
133 to 135 °C	CNC(=O)c1c(NC(=O)c2cc(C(F)(F)F)nn2-c2ncccc2Cl)sc2c1CCC(OC)C2 (stereo not drawn) [Compound T74.1]	–	–	–	–
206 to 207 °C	COC1CCc2c(sc(NC(=O)c3cc(C(F)(F)F)nn3-c3ncccc3Cl)c2C(=O)NC(C)C)C1 (stereo not drawn) [Compound T74.3]	–	–	–	–
264 to 266 °C	CNC(=O)c1sc2nsc(C)c2c1NC(=O)c1cc(C(F)(F)F)nn1-c1ncccc1Cl [Compound T88.1]	–	–	–	–
261 to 263 °C	Cc1snc2sc(C(=O)NC(C)C)c(NC(=O)c3cc(C(F)(F)F)nn3-c3ncccc3Cl)c12 [Compound T88.3]	–	–	–	–
